Assay results: US20070082945A1, “Discodermolide compositions” (priority 2003, published 2007)
Values after ≈ are worked out from the molar mass of the structure shown.

Columns and labels:
[1] = Stability of solution diluted 1:1.6 with 16.3% w/v ethanol in 0.9% sodium chloride, ambient conditions; format: physicochemical; details: 0.77 mg/mL solution for infusion
Protocol: In this example, stability of discodermolide in solution diluted 1:1.6 with 16.3% w/v, ethanol in 0.9% sodium chloride solution (0.77 mg/mL) under ambient conditions is measured. Table 5 describes the amount of degradation product formed over a period of up to 24 hours. The stability is analyzed by determining formation of degradation products in each of the infusion solution as a function of time and temperature. Each sample is analyzed y HPLC with a UV detector. The solution for infusion was prepared by diluting a 2.0 mg/ml discodermolide concentrate with 16.3% ethanol in 0.9% sodium chloride solution in a 1:1.6 ration.

[2] = Solubility and stability in 40% PG/10% ethanol/50% normal saline with hydrotropic agents; format: physicochemical; details: aqueous with cosolvent or surfactant or cyclodextrin, read-out: Discodermolide Solubility
Excerpt: The solubility and stability of discodermolide in 40% propylene glycol/10% ethanol 50% normal saline diluted with hydrotropic agents is shown in Table 7.

[3] = Stability of 16 mg/mL infusion concentrate in propylene glycol (HPLC, UV detector), Example 13; format: physicochemical; details: for Assay / Total Impurities: 16 mg/mL infusion concentrate in PG
Protocol: The stability of an infusion concentrate of 16 mg/mL in propylene glycol at different temperatures is determined. Table 3 describes the amount of degradation product formed over a period of up to 12 weeks. The stability is analyzed by determining formation of degradation products in each of the infusion concentrates as a function of time and temperature. Each sample is analyzed by HPLC with a UV detector.

[4] = Stability of propylene glycol infusion concentrates (HPLC, UV detector), Example 12; format: physicochemical
Protocol: The stability of propylene glycol infusion concentrates comprising discodermolide at different concentrations and various temperatures is determined. The stability is analyzed by determining formation of degradation products in each of the infusion concentrates as a function of time and temperature. Each sample is analyzed by HPLC with a UV detector. […] Under accelerated conditions, the levels of impurities increased at both 25° C./60% relative humidity (RH) and 45° C./60% RH.

[5] = Solubility of discodermolide in various solvent systems measured by HPLC; format: physicochemical
Protocol: The solubility of discodermolide in various solvent systems is measured by HPLC and the results shown below: […]

microtubules = details: compared with paclitaxel; cited from earlier work
[6] = 0.6 mg/mL infusion concentrate in PG, 0-time
[7] = 0.6 mg/mL infusion concentrate in PG, 5° C., 0.5 month
[8] = 0.6 mg/mL infusion concentrate in PG, 5° C., 1 month
[9] = 0.6 mg/mL infusion concentrate in PG, 5° C., 2 months
[10] = 0.6 mg/mL infusion concentrate in PG, 5° C., 3 months
[11] = 0.6 mg/mL infusion concentrate in PG, 25° C./60% RH, 0.5 month
[12] = 0.6 mg/mL infusion concentrate in PG, 25° C./60% RH, 1 month
[13] = 0.6 mg/mL infusion concentrate in PG, 25° C./60% RH, 2 months
[14] = 0.6 mg/mL infusion concentrate in PG, 25° C./60% RH, 3 months
[15] = 0.6 mg/mL infusion concentrate in PG, 45° C./60% RH, 0.5 month
[16] = 0.6 mg/mL infusion concentrate in PG, 45° C./60% RH, 1 month
[17] = 2.0 mg/mL infusion concentrate in PG, 0-time
[18] = 2.0 mg/mL infusion concentrate in PG, 5° C., 0.5 month
[19] = 2.0 mg/mL infusion concentrate in PG, 5° C., 1 month
[20] = 2.0 mg/mL infusion concentrate in PG, 5° C., 2 months
[21] = 2.0 mg/mL infusion concentrate in PG, 5° C., 3 months
[22] = 2.0 mg/mL infusion concentrate in PG, 25° C./60% RH, 0.5 month
[23] = 2.0 mg/mL infusion concentrate in PG, 25° C./60% RH, 1 month
[24] = 2.0 mg/mL infusion concentrate in PG, 25° C./60% RH, 2 months
[25] = 2.0 mg/mL infusion concentrate in PG, 25° C./60% RH, 3 months
[26] = 2.0 mg/mL infusion concentrate in PG, 45° C./60% RH, 0.5 month
[27] = 2.0 mg/mL infusion concentrate in PG, 45° C./60% RH, 1 month
[28] = 3.0 mg/mL infusion concentrate in PG, 0-time
[29] = 3.0 mg/mL infusion concentrate in PG, 5° C., 0.5 month
[30] = 3.0 mg/mL infusion concentrate in PG, 5° C., 1 month
[31] = 3.0 mg/mL infusion concentrate in PG, 5° C., 2 months
[32] = 3.0 mg/mL infusion concentrate in PG, 5° C., 3 months
[33] = 3.0 mg/mL infusion concentrate in PG, 25° C./60% RH, 0.5 month
[34] = 3.0 mg/mL infusion concentrate in PG, 25° C./60% RH, 1 month
[35] = 3.0 mg/mL infusion concentrate in PG, 25° C./60% RH, 2 months
[36] = 3.0 mg/mL infusion concentrate in PG, 25° C./60% RH, 3 months
[37] = 3.0 mg/mL infusion concentrate in PG, 45° C./60% RH, 0.5 month
[38] = 3.0 mg/mL infusion concentrate in PG, 45° C./60% RH, 1 month

C=C/C=C\C(C)[C@H](OC(N)=O)[C@@H](C)[C@H](O)[C@@H](C)C/C(C)=C\C(C)C(O)[C@@H](C)/C=C\[C@@H](O)C[C@@H]1OC(=O)[C@H](C)C(O)C1C (single isomer, unassigned; (+)) [discodermolide, (+)-Discodermolide]
Total Impurities ([1]; 0 hours): 0.20 % area
Total Impurities ([1]; 2 hours): 0.23 % area
Total Impurities ([1]; 4 hours): 0.34 % area
Total Impurities ([1]; 8 hours): 0.47 % area
Total Impurities ([1]; 24 hours): 0.80 % area
solubility ([2]; 40% PG/10% EtOH/4% benzoic acid in normal saline): 1900 µg/mL (≈ 3200 µM)
solubility ([2]; 40% PG/10% EtOH/4% benzoic acid/1% benzyl alcohol in normal saline): 2200 µg/mL (≈ 3700 µM)
solubility ([2]; propylene glycol/ethanol/normal saline mixture, 40% PG/10% EtOH in normal saline): 910 µg/mL (≈ 1530 µM)
Assay ([3]; 0-time): 103.9 % label claim
Total Impurities ([3]; 0-time): 0.59%
Assay ([3]; 5° C., 4 weeks): 102.2 % label claim
Total Impurities ([3]; 5° C., 4 weeks): 0.60%
Assay ([3]; 5° C., 8 weeks): 101.4 % label claim
Total Impurities ([3]; 5° C., 8 weeks): 0.48%
Assay ([3]; 5° C., 12 weeks): 100.7 % label claim
Total Impurities ([3]; 5° C., 12 weeks): 0.49%
Assay ([3]; 25° C./60% RH, 3 weeks): 100.7 % label claim
Total Impurities ([3]; 25° C./60% RH, 3 weeks): 0.56%
Assay ([3]; 25° C./60% RH, 4 weeks): 103.6 % label claim
Total Impurities ([3]; 25° C./60% RH, 4 weeks): 0.66%
Assay ([3]; 25° C./60% RH, 8 weeks): 100.5 % label claim
Total Impurities ([3]; 25° C./60% RH, 8 weeks): 0.68%
Assay ([3]; 25° C./60% RH, 12 weeks): 100.1 % label claim
Total Impurities ([3]; 25° C./60% RH, 12 weeks): 0.65%
Assay ([3]; 50° C./75% RH, 3 weeks): 99.4 % label claim
Total Impurities ([3]; 50° C./75% RH, 3 weeks): 0.65%
Assay ([3]; 50° C./75% RH, 4 weeks): 101.6 % label claim
Total Impurities ([3]; 50° C./75% RH, 4 weeks): 0.65%
Assay ([3]; 50° C./75% RH, 8 weeks): 99.5 % label claim
Total Impurities ([3]; 50° C./75% RH, 8 weeks): 0.65%
Assay ([3]; 50° C./75% RH, 12 weeks): 99.2 % label claim
Total Impurities ([3]; 50° C./75% RH, 12 weeks): 0.62%
Degradation profile and long term stability ([3]; 16 mg/mL infusion concentrate in propylene glycol): comparable to 2.0 mg/mL
Assay [4, 6]: 100.4 % label claim
Total Impurities [4, 6]: 0.18%
Assay [4, 7]: 103.2 % label claim
Total Impurities [4, 7]: 0.16%
Assay [4, 8]: 102.6 % label claim
Total Impurities [4, 8]: 0.19%
Assay [4, 9]: 103.3 % label claim
Total Impurities [4, 9]: 0.27%
Assay [4, 10]: 103.8 % label claim
Total Impurities [4, 10]: 0.29%
Assay [4, 11]: 102.8 % label claim
Total Impurities [4, 11]: 0.65%
Assay [4, 12]: 101.9 % label claim
Total Impurities [4, 12]: 1.08%
Assay [4, 13]: 102.5 % label claim
Total Impurities [4, 13]: 1.18%
Assay [4, 14]: 102.4 % label claim
Total Impurities [4, 14]: 1.43%
Assay [4, 15]: 102.0 % label claim
Total Impurities [4, 15]: 1.49%
Assay [4, 16]: 101.6 % label claim
Total Impurities [4, 16]: 1.91%
Assay [4, 17]: 99.9 % label claim
Total Impurities [4, 17]: 0.19%
Assay [4, 18]: 103.2 % label claim
Total Impurities [4, 18]: 0.16%
Assay [4, 19]: 100.5 % label claim
Total Impurities [4, 19]: 0.18%
Assay [4, 20]: 102.5 % label claim
Total Impurities [4, 20]: 0.18%
Assay [4, 21]: 101.0 % label claim
Total Impurities [4, 21]: 0.54%
Assay [4, 22]: 101.1 % label claim
Total Impurities [4, 22]: 0.55%
Assay [4, 23]: 99.6 % label claim
Total Impurities [4, 23]: 0.78%
Assay [4, 24]: 101.4 % label claim
Total Impurities [4, 24]: 1.18%
Assay [4, 25]: 100.9 % label claim
Total Impurities [4, 25]: 1.48%
Assay [4, 26]: 100.3 % label claim
Total Impurities [4, 26]: 1.17%
Assay [4, 27]: 100.0 % label claim
Total Impurities [4, 27]: 1.69%
Assay [4, 28]: 102.7 % label claim
Total Impurities [4, 28]: 0.19%
Assay [4, 29]: 101.5 % label claim
Total Impurities [4, 29]: 0.16%
Assay [4, 30]: 102.0 % label claim
Total Impurities [4, 30]: 0.19%
Assay [4, 31]: 104.1 % label claim
Total Impurities [4, 31]: 0.17%
Assay [4, 32]: 104.4 % label claim
Total Impurities [4, 32]: 0.29%
Assay [4, 33]: 102.4 % label claim
Total Impurities [4, 33]: 0.35%
Assay [4, 34]: 101.3 % label claim
Total Impurities [4, 34]: 0.52%
Assay [4, 35]: 103.1 % label claim
Total Impurities [4, 35]: 0.69%
Assay [4, 36]: 102.1 % label claim
Total Impurities [4, 36]: 0.69%
Assay [4, 37]: 100.9 % label claim
Total Impurities [4, 37]: 0.58%
Assay [4, 38]: 101.5 % label claim
Total Impurities [4, 38]: 0.70%
Levels of impurities under accelerated conditions ([4]; 25° C./60% RH and 45° C./60% RH): increased
Change in discodermolide content ([4]; PG infusion concentrates, after 3 months at 5° C.): No significant changes
Total impurity amounts ([4]; PG infusion concentrates, after 3 months at 5° C., versus proposed specification limit): < 2.0%
solubility ([5]; 20% PEG 300/80% normal saline, aqueous with cosolvent or surfactant or cyclodextrin): 20 µg/mL (≈ 33.7 µM)
solubility ([5]; 20% propylene glycol/80% normal saline, aqueous with cosolvent or surfactant or cyclodextrin, 20% PG/80% normal saline): 130 µg/mL (≈ 219 µM)
solubility ([5]; 30% ethanol/70% normal saline, aqueous with cosolvent or surfactant or cyclodextrin): 200 µg/mL (≈ 337 µM)
solubility ([5]; 60% PEG 300/40% normal saline, aqueous with cosolvent or surfactant or cyclodextrin): 400 µg/mL (≈ 674 µM)
solubility ([5]; 60% ethanol/40% normal saline, aqueous with cosolvent or surfactant or cyclodextrin): 2300 µg/mL (≈ 3870 µM)
solubility ([5]; 60% propylene glycol/40% normal saline, aqueous with cosolvent or surfactant or cyclodextrin, 60% PG/40% normal saline): 530 µg/mL (≈ 893 µM)
solubility ([5]; 100% PEG 300, organic solvent or mixture): > 20000 µg/mL
solubility ([5]; 100% ethanol, organic solvent or mixture): > 20000 µg/mL
solubility ([5]; 100% propylene glycol, organic solvent or mixture, 100% PG): > 20000 µg/mL
Effectiveness in mechanism-based assays (microtubules): more effective than paclitaxel
